Data taken from US7855076B2, “Use of discoidin domain receptor 1 (DDR1) and agents that affect the DDR1/collagen pathway” (The United States of America as represented by the …, priority 2002, dated 2010).

Experiments:
THP-1 cells = experiment: Adherence of THP-1 cells to coated plates; type: cell-based, human; conditions: DDR1a- or DDR1b-overexpressing THP-1 cells, 30 minutes
Procedure: 5×10^5 cells/ml were cultured on either BSA (10 mg/ml)- or collagen (20 μg/ml) and BSA-coated plates for 30 (FIG. 2A) or 120 minutes (FIG. 2B) at 37° C. in a 5% CO2 humidified incubator. Normal mouse IgG or anti-β1 integrin blocking IgG was added to measure the effect of β1 integrin in the assay. The number of adherent cells in each 400× visual field was counted. The results are presented as means ±SE of four individual fields. Data are representative of three experiments with two independent clones overexpressing either DDR1a or DDR1b.
To determine the effects of collagen on the functions of DDR1a- and DDR1b-overexpressing THP-1 cells, the cells were incubated on collagen-coated plastic plates. Twenty-four-well plates were coated with 100 μl/well human collagen type I (20 μg/ml) overnight at 4° C., and then with 200 μl/well 10 mg/ml bovine serum albumin (BSA) for 1 hour at 37° C. Cells were plated at the cell density of 1×10^5 cells/ml to the coated wells and were incubated for 30 minutes at 37° C. in 5% CO2 humidified atmosphere. Nonadherent cells were removed by washing three times with PBS. Cells that remained on the coated surface were considered to be adherent, and the number of cells in each 400 field was counted. Results were presented as mean ±SE per 400 field.

DDR1a = molecular target: T1, DDR1a (Homo sapiens, UniProt Q08345); experiment: Autophosphorylation of DDR1a overexpressed in THP-1 cells; type: cell-based
T1 construct: The full-length human DDR1a or DDR1b cDNA was ligated into the EcoRI/BamHI site of the retroviral vector pLXSN; expressed in transfected cells; host or cells: THP-1 human monocytic leukemia cells, retroviral vector pLXSN, G418-selected clones
T1 sequence (Q08345 19-876 isoform Q08345-2 limits assumed): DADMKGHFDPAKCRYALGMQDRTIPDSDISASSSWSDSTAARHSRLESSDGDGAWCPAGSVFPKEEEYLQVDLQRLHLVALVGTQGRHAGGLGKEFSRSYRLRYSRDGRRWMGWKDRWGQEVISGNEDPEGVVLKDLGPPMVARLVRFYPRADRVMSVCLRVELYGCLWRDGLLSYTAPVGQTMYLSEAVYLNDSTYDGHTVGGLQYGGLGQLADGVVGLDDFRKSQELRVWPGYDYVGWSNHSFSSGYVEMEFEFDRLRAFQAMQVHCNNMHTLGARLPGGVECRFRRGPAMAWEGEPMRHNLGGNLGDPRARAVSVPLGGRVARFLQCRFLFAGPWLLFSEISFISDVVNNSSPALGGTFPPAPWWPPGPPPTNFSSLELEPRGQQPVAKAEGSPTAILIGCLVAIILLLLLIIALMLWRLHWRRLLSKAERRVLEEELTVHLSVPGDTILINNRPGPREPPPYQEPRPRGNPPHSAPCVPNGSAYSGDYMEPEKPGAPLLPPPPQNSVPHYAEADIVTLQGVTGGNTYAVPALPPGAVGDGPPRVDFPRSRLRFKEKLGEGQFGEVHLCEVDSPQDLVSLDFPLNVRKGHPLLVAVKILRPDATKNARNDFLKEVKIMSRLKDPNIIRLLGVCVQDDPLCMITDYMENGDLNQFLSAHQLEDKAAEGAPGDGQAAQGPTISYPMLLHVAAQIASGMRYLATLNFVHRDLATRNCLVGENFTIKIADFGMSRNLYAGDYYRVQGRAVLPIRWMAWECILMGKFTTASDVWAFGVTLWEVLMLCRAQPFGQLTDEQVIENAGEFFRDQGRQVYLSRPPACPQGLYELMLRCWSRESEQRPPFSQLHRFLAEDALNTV
Procedure: Using the retrovirus-infected cell lines, the effect of collagen type I on the phosphorylation of DDR1 proteins was tested. Two million cells in 3 ml complete medium were added onto collagen type I-coated plastic plates and incubated at 37° C. for various times. Cell lysates were prepared and immunoprecipitation was performed with the anti-DDR1 antibody. One-fourth of the immunoprecipitated samples was subjected to SDS-PAGE and Western blotting. The membranes were blotted with anti-pTyr and anti-DDR1 antibody. Low levels of constitutive autophosphorylation of both receptors were detected. The levels of autophosphorylation increased slightly at 15 minutes and peaked at 90 minutes after activation of the cells on collagen type I-coated plastic plates. The peak level was maintained for up to 240 minutes for DDR1a, which is consistent with the previously reported delayed kinetics of […] autophosphorylation in other cell types (Vogel FASEB J, (Suppl.), S77-S82, 1999). In contrast, autophosphorylation of DDR1b decreased after 90 minutes of collagen-activation.
Parental, mock, DDR1a- or DDR1b-overexpressing THP-1 cells were plated at 5×10^6/ml on uncoated tissue culture plates and stimulated with PMA (10 nM) for 24 hours, and then starved in RMPI 1640 without FCS for 10 hours. Subsequently cells were washed three times with PBS, and then incubated in the presence of 50 μg/ml collagen type I for various times.
Ten million cells were lysed on ice for 20 minutes in a buffer containing 50 mM NaCl, 20 mM Tris-HCl, 50 mM sodium fluoride, 30 mM Na4P2O7, 5 mM EGTA, 3 mM sodium orthovanadate, 1% Triton X-100, 1 mg/ml leupeptin, 1 mM PMSF, 1 mg/ml aprotinin, 1 mg/ml pepstatinA and 100 μM sodium orthovanadate treated with H2O2. […]
Eluted proteins were analyzed on 8% polyacrylamide gels by SDS-PAGE and transferred electrophoretically to nitrocellulose membranes at 150 mA for 1 hour by a semi-dry system. […] To detect phosphorylated or nonphosphorylated p38 MAP kinase or ATF-2, 20 μl of cell lysates were directly mixed with 20 μl of sample buffer and then analyzed.

[1] = PMA-treated cells, 50 μg/ml collagen type I

## collagen
THP-1 cells
  cells adhered to collagen-coated plates: ~62 % of total cells
DDR1a; [1]
  time autophosphorylation first detected: 90 min
  time of peak autophosphorylation: 4 h
DDR1a; collagen type I-coated plates, cells not PMA-treated
  time of peak autophosphorylation: 1.5 h
